pKi: −log10 of the molar value.
Target: T1, Recombinant human oxytocin receptors (Homo sapiens, UniProt P30559)
T1 construct: expressed in transfected cells; host or cells: CHO cells
T1 sequence (P30559 1-389): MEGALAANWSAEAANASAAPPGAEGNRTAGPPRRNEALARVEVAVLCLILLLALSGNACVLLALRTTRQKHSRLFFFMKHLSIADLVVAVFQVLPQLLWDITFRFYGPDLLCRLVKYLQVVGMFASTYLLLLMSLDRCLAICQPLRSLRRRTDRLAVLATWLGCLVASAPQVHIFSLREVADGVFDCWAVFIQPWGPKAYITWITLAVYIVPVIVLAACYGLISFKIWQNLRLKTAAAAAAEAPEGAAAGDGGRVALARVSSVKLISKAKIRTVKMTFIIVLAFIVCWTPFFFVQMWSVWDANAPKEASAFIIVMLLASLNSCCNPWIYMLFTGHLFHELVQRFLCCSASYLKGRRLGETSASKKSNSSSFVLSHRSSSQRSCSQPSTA
Assay: Oxytocin receptor binding assay, [125I]-oxytocin, membrane fraction of CHO cells
Details: receptors expressed in CHO cells; [125I]-oxytocin displacement; read-out: inhibition constant Ki
Description: Recombinant human oxytocin receptors were expressed in CHO cells using standard molecular biological techniques. A membrane fraction was prepared and incubated in the presence of [^125I]-oxytocin and varying concentrations of equivalent heptapeptide analogue. Membranes were then isolated by filtration and counted for radioactivity to determine oxytocin binding. An inhibition constant Ki was determined for the analogue.

CC[C@@H](C)[C@@H]1NC(=O)[C@H]([C@@H](C)CC)NC(=O)[C@@H](Cc2c[nH]c3ccccc23)NC(=O)CCSCC[C@@H](C(=O)N(C)[C@H](CO)CCCN)NC(=O)[C@H](CC(N)=O)NC1=O [IV]
pKi: 10.00

From US7816489B2, “Methods for making intermediates and oxytocin analogues” (Ferring B.V., priority 2002, dated 2010)
